Measured values reported in PubChem BioAssay (NCI).
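A five-concentration, 48-hour dose response in 96-well plates underlies each endpoint, interpolated linearly between surrounding concentrations. GI50 = concentration required for 50% inhibition of growth. Definition used: TGI = concentration required for complete inhibition of growth.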

Legend:
Assay in all cases: DTP human tumour cell line panel, 48 h
LOX IMVI melanoma = test system: LOX IMVI melanoma
SF-268 CNS = test system: SF-268 CNS
HL-60(TB) leukemia = test system: HL-60(TB) leukemia
MOLT-4 leukemia = test system: MOLT-4 leukemia
EKVX NSCLC = test system: EKVX NSCLC
SK-MEL-28 melanoma = test system: SK-MEL-28 melanoma
SW-620 colon = test system: SW-620 colon
SK-OV-3 ovarian = test system: SK-OV-3 ovarian
HCC-2998 colon = test system: HCC-2998 colon
CAKI-1 renal = test system: CAKI-1 renal

Row | SMILES | TGI (LOX IMVI melanoma) [µM] | TGI (SF-268 CNS) [µM] | TGI (HL-60(TB) leukemia) [µM] | TGI (MOLT-4 leukemia) [µM] | TGI (EKVX NSCLC) [µM] | TGI (SK-MEL-28 melanoma) [µM] | TGI (SW-620 colon) [µM] | TGI (SK-OV-3 ovarian) [µM] | TGI (HCC-2998 colon) [µM] | GI50 (SF-268 CNS) [µM] | GI50 (HL-60(TB) leukemia) [µM] | GI50 (CAKI-1 renal) [µM] | TGI (CAKI-1 renal) [µM] | GI50 (MOLT-4 leukemia) [µM] | GI50 (EKVX NSCLC) [µM] | GI50 (SW-620 colon) [µM] | GI50 (HCC-2998 colon) [µM] | GI50 (LOX IMVI melanoma) [µM] | GI50 (SK-MEL-28 melanoma) [µM] | GI50 (SK-OV-3 ovarian) [µM]
1 | CCOc1cccc2cccnc12 | > 100 | > 100 | > 100 | > 100 | > 100 | > 100 | > 100 | > 100 | > 100 | – | – | – | – | – | – | – | – | – | – | –
2 | COc1ccc(OC)c(-c2cc(-c3ccc(Cl)cc3)nn2-c2ccc(S(N)(=O)=O)cc2)c1 | – | 32.9 | > 100 | > 100 | 27.5 | – | > 100 | – | 21.6 | 13.9 | 14.3 | 11.2 | 29.3 | 3.52 | 11.9 | 4.29 | 7.51 | – | – | –
3 | OCCOCn1nc(-c2ccccc2)nc1-c1cnccn1 | > 100 | > 100 | > 100 | > 100 | > 100 | > 100 | > 100 | > 100 | > 100 | – | – | – | – | – | – | – | – | – | – | –
4 | COc1ncn(C2C=C(CO)C(O)C2O)c(=O)n1 (stereo unspecified) | – | > 100 | > 100 | > 100 | > 100 | > 100 | – | > 100 | > 100 | – | – | – | – | – | – | – | – | – | – | –
5 | CN1CCN(c2nc(NCCNc3ccnc4cc(Cl)ccc34)c3ccccc3n2)CC1 | 3.34 | 13.1 | 3.5 | 6.36 | 17.3 | 3.39 | 13.3 | 11.7 | 10.4 | 2.72 | 1.74 | – | – | 1.63 | 3.86 | 0.391 | 3.11 | 1.63 | 1.83 | 3.18
6 | N=C(N)c1ccc(-c2ccc(-c3ccco3)o2)cc1 | 5.2 | 18.7 | 5.53 | 10.8 | – | 6.22 | 4.09 | 21.2 | 3.42 | 4.85 | 2.19 | 3.94 | 16.6 | 3.26 | – | 1.92 | 1.85 | 2.23 | 2.31 | 9.21
7 | COc1cc(OC)cc(-c2n[nH]nc2-c2ccc3c(c2)OCO3)c1 | 87.1 | > 100 | – | 51.8 | – | 43.5 | > 100 | 93.2 | 24.6 | 2.37 | – | 0.316 | > 100 | 0.572 | – | 0.105 | 2.15 | 0.545 | 4.44 | 0.486
8 | C=C1c2c(C)nn(-c3ccccc3)c2N(C)C23C[C@@H]1C1(C)c4c(C)nn(-c5ccccc5)c4N(C)C(C)(C[C@H]12)C3 (stereo partly specified) | – | > 100 | – | – | – | > 100 | – | 21.8 | > 100 | 7.52 | – | – | – | – | – | – | 6.21 | – | 22.6 | 4.64
9 | O=C(O)CSc1ccn(Cc2ccccc2)c1 | > 100 | > 100 | > 100 | > 100 | > 100 | > 100 | > 100 | > 100 | – | – | – | – | > 100 | – | – | – | – | – | – | –
10 | COc1ccccc1NC(=O)CC(=O)NNCC(=O)Nc1nc(-c2ccccc2)cs1 | > 100 | > 100 | > 100 | > 100 | > 100 | > 100 | > 100 | > 100 | – | – | – | – | – | – | – | – | – | – | – | –
